Experimental findings from ChEMBL document CHEMBL4190187, “Discovery of pyrazolopyrimidine derivatives as novel inhibitors of ataxia telangiectasia and rad3 related protein (ATR)” (Bioorg Med Chem Lett, 2017) are described below.

The target of test [1] is Mitogen-activated protein kinase kinase kinase 10 (Homo sapiens) (UniProt Q02779). Briefly: Inhibition of recombinant human MLK2 (1 to 449 residues) at 1 uM using myelin basic protein as substrate after 40 mins in presence of [gamma-33P]ATP by scintillation counting method.
In test [2] the target is Muscle, skeletal receptor tyrosine-protein kinase (Homo sapiens) (UniProt O15146). The experiment in a line: Inhibition of recombinant human MUSK (530 to end residues) at 1 uM using myelin basic protein as substrate after 40 mins in presence of [gamma-33P]ATP by scintillation counting method.
The target of test [3] is cAMP-dependent protein kinase catalytic subunit PRKX (Homo sapiens) (UniProt P51817). Briefly: Inhibition of recombinant full-length human PRKX at 1 uM using RRRLSFAEPG as substrate after 40 mins in presence of [gamma-33P]ATP by scintillation counting method.
Test [4] addresses Activated CDC42 kinase 1 (Homo sapiens) (UniProt Q07912). Briefly: Inhibition of recombinant human ACK1 (1 to 389 residues) at 1 uM using EFPIYDFLPAKKK as substrate after 40 mins in presence of [gamma-33P]ATP by scintillation counting method.
Test [5] deals with Mitogen-activated protein kinase kinase kinase 3 (Homo sapiens) (UniProt Q99759). The experiment in a line: Inhibition of recombinant full-length human MEKK3 at 1 uM using MBP as substrate after 40 mins in presence of [gamma-33P]ATP by scintillation counting method.
Test [6] concerns the target Tyrosine-protein kinase Lyn (Mus musculus) (UniProt P25911). Briefly: Inhibition of recombinant full-length mouse Lyn at 1 uM using poly(Glu,Tyr) 4:1 as substrate after 40 mins in presence of [gamma-33P]ATP by scintillation counting method.
For test [7], the target named is Serine/threonine-protein kinase NLK (Homo sapiens) (UniProt Q9UBE8). The experiment in a line: Inhibition of recombinant human NLK (121 to end residues) at 1 uM using myelin basic protein as substrate after 40 mins in presence of [gamma-33P]ATP by scintillation counting method.
Test [8] addresses TGF-beta receptor type-1 (Homo sapiens) (UniProt P36897). Briefly: Inhibition of recombinant activated human TGFBR1 (200 to end residues) at 1 uM using casein as substrate after 40 mins in presence of [gamma-33P]ATP by scintillation counting method.
Test [9] has as its target CDK12/Cyclin K (Homo sapiens) (UniProt O75909+Q9NYV4). The experiment in a line: Inhibition of recombinant full-length human CDK12/Cyclin K at 1 uM using RSRSRSRSRSRSRSR as substrate after 120 mins in presence of [gamma-33P]ATP by scintillation counting method. The test is classed as protein-complex assay.
Test [10] has as its target BDNF/NT-3 growth factors receptor (Homo sapiens) (UniProt Q16620). Briefly: Inhibition of recombinant human TrkB (455 to end residues) at 1 uM using poly(Glu,Tyr) 4:1 as substrate after 40 mins in presence of [gamma-33P]ATP by scintillation counting method.
Test [11] concerns the target Interferon-induced, double-stranded RNA-activated protein kinase (Homo sapiens) (UniProt P19525). The experiment in a line: Inhibition of recombinant human PKR (501 to end residues) at 1 uM using AKRRRLSSLRA as substrate after 40 mins in presence of [gamma-33P]ATP by scintillation counting method.
Test [12] relates to Tyrosine-protein kinase ABL1 (Homo sapiens), P00519 [Y253F]. Briefly: Inhibition of recombinant human Abl Y253F mutant (27 to end residues) at 1 uM using EAIYAAPFAKKK as substrate after 40 mins in presence of [gamma-33P]ATP by scintillation counting method.
In test [13] the target is Tyrosine-protein kinase JAK2 (Homo sapiens) (UniProt O60674). Briefly: Inhibition of recombinant human JAK2 (808 to end residues) at 1 uM using KTFCGTPEYLAPEVRREPRILSEEEQEMFRDFDYIADWC as substrate after 40 mins in presence of [gamma-33P]ATP by scintillation counting method.
Test [14] relates to Proto-oncogene tyrosine-protein kinase receptor Ret (Homo sapiens), P07949 [V804M]. The experiment in a line: Inhibition of recombinant human RET V804M mutant (658 to end residues) at 1 uM using KKKVSRSGLYRSPSMPENLNRPR as substrate after 40 mins in presence of [gamma-33P]ATP by scintillation counting method.
Test [15] addresses Mitogen-activated protein kinase 13 (Homo sapiens) (UniProt O15264). The experiment in a line: Inhibition of recombinant full-length human SAPK4 at 1 uM using myelin basic protein as substrate after 40 mins in presence of [gamma-33P]ATP by scintillation counting method.
For test [16], the target named is Serine/threonine-protein kinase DCLK3 (Homo sapiens) (UniProt Q9C098). The experiment in a line: Inhibition of recombinant human DCAMKL3 (345 to end residues) at 1 uM using KKLNRTLSFAEPG as substrate after 40 mins in presence of [gamma-33P]ATP by scintillation counting method.
The target in test [17] is Ribosomal protein S6 kinase alpha-3 (Homo sapiens) (UniProt P51812). The experiment in a line: Inhibition of recombinant human Rsk2 (2 to end residues) at 1 uM using KKKNRTLSVA as substrate after 40 mins in presence of [gamma-33P]ATP by scintillation counting method.
In test [18] the target is Tyrosine-protein kinase Blk (Mus musculus) (UniProt P16277). Briefly: Inhibition of recombinant full-length mouse Blk at 1 uM using poly(Glu,Tyr) 4:1 as substrate after 40 mins in presence of [gamma-33P]ATP by scintillation counting method.
For test [19], the target named is Dual specificity mitogen-activated protein kinase kinase 7 (Homo sapiens) (UniProt O14733). The experiment in a line: Inhibition of recombinant human MKK7beta (2 to end residues) at 1 uM using inactive JNK171 as substrate after 40 mins in presence of [gamma-33P]ATP by scintillation counting method.
For test [20], the target named is Mitogen-activated protein kinase 14 (Homo sapiens) (UniProt Q16539). Briefly: Inhibition of recombinant full-length human SAPK2a at 1 uM using myelin basic protein as substrate after 40 mins in presence of [gamma-33P]ATP by scintillation counting method.
Test [21] has as its target CDK4/Cyclin D3 (Homo sapiens) (UniProt P11802+P30281). The experiment in a line: Inhibition of recombinant full-length human CDK4/Cyclin D3 at 1 uM using Rb fragment as substrate after 40 mins in presence of [gamma-33P]ATP by scintillation counting method. The test is classed as protein-complex assay.
For test [22], the target named is Hepatocyte growth factor receptor (Homo sapiens) (UniProt P08581). Briefly: Inhibition of recombinant human Met (974 to end residues) at 1 uM using KKKGQEEEYVFIE as substrate after 40 mins in presence of [gamma-33P]ATP by scintillation counting method.
Test [23] has as its target Mitogen-activated protein kinase 1 (Homo sapiens) (UniProt P28482). Briefly: Inhibition of recombinant full-length human MAPK2 at 1 uM using myelin basic protein as substrate after 40 mins in presence of [gamma-33P]ATP by scintillation counting method.
The target of test [24] is cGMP-dependent protein kinase 1 (Homo sapiens) (UniProt Q13976). Briefly: Inhibition of recombinant full-length human PKG1alpha at 1 uM using RRRLSFAEPG as substrate after 40 mins in presence of [gamma-33P]ATP by scintillation counting method.

For orientation: inhibition means the relative decrease from the control value, in per cent.

Chain of Mitogen-activated protein kinase 1 (Homo sapiens) (P28482 whole entry): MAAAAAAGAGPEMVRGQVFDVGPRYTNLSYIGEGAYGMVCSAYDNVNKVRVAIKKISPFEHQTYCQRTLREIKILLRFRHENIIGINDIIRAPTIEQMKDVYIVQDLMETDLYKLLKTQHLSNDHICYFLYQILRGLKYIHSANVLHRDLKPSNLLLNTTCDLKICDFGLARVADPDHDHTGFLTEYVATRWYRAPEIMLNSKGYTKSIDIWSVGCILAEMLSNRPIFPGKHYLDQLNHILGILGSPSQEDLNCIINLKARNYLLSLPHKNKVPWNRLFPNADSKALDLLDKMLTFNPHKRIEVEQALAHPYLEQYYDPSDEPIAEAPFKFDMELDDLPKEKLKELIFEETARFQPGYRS
Chain of Tyrosine-protein kinase JAK2 (Homo sapiens) (O60674 whole entry): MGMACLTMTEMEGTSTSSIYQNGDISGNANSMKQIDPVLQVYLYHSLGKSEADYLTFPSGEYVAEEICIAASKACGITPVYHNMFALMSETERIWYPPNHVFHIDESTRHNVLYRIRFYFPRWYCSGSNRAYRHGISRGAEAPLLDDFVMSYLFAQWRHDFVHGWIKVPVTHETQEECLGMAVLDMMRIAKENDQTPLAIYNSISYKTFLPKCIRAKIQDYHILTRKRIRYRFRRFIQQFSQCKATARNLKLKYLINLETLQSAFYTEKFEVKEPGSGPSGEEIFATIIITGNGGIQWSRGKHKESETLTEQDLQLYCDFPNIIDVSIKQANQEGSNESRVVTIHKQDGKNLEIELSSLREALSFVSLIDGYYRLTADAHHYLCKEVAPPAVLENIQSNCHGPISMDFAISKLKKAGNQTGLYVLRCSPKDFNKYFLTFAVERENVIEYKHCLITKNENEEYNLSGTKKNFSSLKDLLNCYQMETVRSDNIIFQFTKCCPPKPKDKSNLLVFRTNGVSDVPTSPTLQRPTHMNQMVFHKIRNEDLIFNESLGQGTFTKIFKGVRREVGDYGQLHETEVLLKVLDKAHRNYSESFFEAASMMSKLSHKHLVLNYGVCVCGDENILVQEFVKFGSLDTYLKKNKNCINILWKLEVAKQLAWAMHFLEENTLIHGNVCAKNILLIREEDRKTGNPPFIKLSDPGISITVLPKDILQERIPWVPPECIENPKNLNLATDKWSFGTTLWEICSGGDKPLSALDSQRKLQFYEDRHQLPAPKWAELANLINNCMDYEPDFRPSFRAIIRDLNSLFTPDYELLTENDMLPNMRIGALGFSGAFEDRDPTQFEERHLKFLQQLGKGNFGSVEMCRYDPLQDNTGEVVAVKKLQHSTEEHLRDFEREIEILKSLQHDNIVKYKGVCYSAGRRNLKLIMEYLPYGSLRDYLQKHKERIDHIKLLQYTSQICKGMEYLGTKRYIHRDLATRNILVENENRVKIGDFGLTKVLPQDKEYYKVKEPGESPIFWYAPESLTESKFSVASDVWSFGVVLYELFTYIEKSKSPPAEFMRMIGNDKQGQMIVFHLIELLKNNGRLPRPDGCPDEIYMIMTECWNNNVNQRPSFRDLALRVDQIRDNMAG
Chain of Mitogen-activated protein kinase 13 (Homo sapiens) (O15264 whole entry): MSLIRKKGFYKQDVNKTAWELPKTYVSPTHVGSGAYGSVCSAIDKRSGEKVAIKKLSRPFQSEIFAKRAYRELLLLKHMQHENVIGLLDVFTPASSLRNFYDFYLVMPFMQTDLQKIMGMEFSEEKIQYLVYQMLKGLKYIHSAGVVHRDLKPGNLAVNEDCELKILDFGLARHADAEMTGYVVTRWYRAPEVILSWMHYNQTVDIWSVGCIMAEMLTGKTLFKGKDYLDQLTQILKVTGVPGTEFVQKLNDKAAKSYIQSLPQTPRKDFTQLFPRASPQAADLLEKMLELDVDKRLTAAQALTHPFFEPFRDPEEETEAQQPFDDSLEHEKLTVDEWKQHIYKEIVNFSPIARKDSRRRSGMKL
Chain of Muscle, skeletal receptor tyrosine-protein kinase (Homo sapiens) (O15146 whole entry): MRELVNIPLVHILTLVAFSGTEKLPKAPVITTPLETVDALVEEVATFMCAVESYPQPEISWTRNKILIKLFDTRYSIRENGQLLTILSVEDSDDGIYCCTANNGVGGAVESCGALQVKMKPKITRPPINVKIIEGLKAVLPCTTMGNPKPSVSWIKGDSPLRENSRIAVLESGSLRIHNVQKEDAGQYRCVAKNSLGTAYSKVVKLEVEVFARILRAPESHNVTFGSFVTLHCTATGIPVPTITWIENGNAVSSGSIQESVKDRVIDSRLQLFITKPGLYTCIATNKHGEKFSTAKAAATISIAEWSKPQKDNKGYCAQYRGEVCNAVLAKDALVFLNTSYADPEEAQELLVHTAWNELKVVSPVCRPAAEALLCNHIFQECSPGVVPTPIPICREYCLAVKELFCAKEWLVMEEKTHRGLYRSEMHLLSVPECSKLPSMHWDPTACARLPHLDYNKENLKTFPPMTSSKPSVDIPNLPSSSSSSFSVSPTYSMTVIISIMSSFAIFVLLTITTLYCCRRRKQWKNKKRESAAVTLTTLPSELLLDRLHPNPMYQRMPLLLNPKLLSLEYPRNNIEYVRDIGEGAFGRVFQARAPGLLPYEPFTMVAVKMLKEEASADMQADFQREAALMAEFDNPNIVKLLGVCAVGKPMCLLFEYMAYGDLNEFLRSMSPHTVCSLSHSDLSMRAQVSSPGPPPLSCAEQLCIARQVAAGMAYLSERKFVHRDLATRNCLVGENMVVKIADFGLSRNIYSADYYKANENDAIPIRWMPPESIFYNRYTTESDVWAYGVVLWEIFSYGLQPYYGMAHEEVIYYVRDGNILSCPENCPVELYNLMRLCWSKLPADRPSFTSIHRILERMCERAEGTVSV
Chain of cGMP-dependent protein kinase 1 (Homo sapiens) (Q13976 whole entry): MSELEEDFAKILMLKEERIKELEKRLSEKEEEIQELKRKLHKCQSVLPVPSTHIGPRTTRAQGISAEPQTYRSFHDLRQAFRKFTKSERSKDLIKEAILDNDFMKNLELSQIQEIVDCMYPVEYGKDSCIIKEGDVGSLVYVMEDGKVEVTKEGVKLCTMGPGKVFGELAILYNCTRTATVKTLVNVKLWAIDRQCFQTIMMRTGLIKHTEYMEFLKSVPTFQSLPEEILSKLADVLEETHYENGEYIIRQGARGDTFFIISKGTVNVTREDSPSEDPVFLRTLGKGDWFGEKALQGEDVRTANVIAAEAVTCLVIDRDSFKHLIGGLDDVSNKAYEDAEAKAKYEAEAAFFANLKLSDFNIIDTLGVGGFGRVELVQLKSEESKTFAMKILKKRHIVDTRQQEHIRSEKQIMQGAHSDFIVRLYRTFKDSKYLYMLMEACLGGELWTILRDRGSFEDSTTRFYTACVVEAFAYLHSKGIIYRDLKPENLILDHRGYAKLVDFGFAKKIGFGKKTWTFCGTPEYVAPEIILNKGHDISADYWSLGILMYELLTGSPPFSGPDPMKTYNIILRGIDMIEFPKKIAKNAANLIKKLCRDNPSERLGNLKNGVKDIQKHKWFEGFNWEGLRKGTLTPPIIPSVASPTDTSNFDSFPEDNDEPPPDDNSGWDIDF
Chain of Interferon-induced, double-stranded RNA-activated protein kinase (Homo sapiens) (P19525 whole entry): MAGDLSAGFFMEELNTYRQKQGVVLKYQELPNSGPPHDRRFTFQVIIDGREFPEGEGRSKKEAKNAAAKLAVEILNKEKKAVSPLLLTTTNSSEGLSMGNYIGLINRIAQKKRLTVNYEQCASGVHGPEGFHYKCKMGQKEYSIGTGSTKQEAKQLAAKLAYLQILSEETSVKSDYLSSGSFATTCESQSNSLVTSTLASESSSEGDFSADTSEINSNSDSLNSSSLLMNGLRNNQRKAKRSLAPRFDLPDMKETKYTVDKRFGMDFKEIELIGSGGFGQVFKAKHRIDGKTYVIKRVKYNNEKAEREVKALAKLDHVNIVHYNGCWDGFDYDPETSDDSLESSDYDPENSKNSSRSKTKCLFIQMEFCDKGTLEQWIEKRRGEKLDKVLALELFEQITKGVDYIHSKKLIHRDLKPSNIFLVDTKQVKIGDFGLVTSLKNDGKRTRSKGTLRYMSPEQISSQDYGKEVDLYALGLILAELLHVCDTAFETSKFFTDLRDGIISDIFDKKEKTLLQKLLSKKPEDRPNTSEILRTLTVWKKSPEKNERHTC
Chain of Mitogen-activated protein kinase 14 (Homo sapiens) (Q16539 whole entry, the tested form may be a part): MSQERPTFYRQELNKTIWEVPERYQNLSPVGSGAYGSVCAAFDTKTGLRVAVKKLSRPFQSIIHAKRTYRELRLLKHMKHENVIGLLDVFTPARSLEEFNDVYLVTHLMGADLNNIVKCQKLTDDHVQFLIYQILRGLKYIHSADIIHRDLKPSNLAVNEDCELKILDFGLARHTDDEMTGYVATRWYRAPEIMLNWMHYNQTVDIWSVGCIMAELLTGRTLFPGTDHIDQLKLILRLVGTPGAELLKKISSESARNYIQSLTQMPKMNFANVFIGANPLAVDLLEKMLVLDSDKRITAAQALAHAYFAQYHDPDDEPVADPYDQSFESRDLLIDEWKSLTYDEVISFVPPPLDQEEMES
Chain of Serine/threonine-protein kinase DCLK3 (Homo sapiens) (Q9C098 whole entry): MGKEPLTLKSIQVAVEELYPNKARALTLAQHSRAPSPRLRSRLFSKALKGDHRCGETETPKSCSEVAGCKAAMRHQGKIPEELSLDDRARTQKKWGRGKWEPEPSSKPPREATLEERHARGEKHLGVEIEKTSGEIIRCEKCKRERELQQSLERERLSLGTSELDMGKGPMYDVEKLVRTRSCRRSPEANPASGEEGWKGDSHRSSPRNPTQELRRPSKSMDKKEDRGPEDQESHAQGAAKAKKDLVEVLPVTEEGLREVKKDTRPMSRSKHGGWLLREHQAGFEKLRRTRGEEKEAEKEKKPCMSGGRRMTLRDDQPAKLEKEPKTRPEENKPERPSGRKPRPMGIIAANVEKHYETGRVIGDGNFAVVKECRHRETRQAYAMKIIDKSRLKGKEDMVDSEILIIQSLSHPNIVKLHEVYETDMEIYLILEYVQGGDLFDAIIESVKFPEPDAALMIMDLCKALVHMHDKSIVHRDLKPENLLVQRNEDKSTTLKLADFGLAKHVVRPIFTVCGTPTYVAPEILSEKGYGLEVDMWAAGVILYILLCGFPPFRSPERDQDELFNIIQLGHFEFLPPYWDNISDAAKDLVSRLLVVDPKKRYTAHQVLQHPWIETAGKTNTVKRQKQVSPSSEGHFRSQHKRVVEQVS

Consider `CS(=O)(=O)c1ccc(-n2nc(-c3cnc4[nH]ccc4c3)c3c(N)ncnc32)cc1`, for which the inhibition is -1% in test [1]; -2% in [2]; -4% in test [3]; 44% in [4]; 9% in [5]; 45% in test [6]. Moreover, the inhibition in test [7] is 18%; in test [8] it was 76%; in test [9], -5%; in [10], 4%; in test [11], 13%; in [12], 85%. Moreover, the inhibition in test [13] was 5%; in test [14] it was 14%; in test [15] it was -5%; in [16] it was -8%; in test [17], -5%; in [18], 12%. The inhibition in test [19] is -4%; in test [20], -5%; in test [21], -9%; in [22], -4%; in test [23] it was 1%; in test [24], -8%.
